{"source": "patent US20010046684A1", "about": "“Methods of structure-based drug design using MS/MNR” (priority 2000, published 2001)", "key": {"MMP-1 [1]": {"molecular_target": "T1, MMP-1 (Homo sapiens, UniProt P03956)", "T1 sequence (P03956 100-469)": "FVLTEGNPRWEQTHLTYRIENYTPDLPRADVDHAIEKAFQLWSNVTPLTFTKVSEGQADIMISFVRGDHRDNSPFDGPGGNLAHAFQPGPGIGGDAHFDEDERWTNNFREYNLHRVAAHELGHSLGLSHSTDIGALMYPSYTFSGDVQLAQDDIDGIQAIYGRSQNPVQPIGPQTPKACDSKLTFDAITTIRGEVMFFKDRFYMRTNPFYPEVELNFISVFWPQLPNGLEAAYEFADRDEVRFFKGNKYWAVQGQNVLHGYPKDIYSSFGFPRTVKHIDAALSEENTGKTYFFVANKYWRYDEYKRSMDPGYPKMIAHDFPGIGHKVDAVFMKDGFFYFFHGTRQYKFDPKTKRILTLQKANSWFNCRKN", "conditions": "Inhibitors of MMP-1; compounds having known affinities, previously tested; cited from earlier work"}, "MMP-1 [2]": {"molecular_target": "T2, MMP-1 (Homo sapiens, UniProt P03956)", "T2 construct": "made in house", "T2 sequence (P03956 101-269 limits assumed)": "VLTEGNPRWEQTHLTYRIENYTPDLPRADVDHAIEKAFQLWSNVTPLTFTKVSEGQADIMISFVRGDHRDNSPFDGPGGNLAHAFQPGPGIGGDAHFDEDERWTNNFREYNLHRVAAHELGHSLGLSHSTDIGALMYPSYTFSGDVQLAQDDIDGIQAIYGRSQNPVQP", "experiment": "2D 1H-15N HSQC NMR chemical shift perturbation of 15N-MMP-1", "format": "binding", "conditions": "0.2 mM 15N-MMP-1, compound 0.2-4.0 mM, pH 6.5, 35° C.", "protocol": "MMP-1 was labeled as described in Moy, J. Biomol. NMR, Vol. 10: 9-19 (1997). […] The 2D ^1H—^15N HSQC spectra were recorded with 256 complex points in t1, 2048 real points in t2, and 192 scans per increment. Spectra windows for t1 and t2 were 1723.7 and 8064.5 Hz, respectively, with the carrier at 4.75 and 115.2 ppm, respectively. Data were processed and analyzed using NMRPipe, NMRWish [F. Delaglio, S. Grzesiek, G. W. Vuister, G. Zhu, J. Pfeifer, and A. Bax J. Biomol. NMR 6, 277 (1995). ] and PIPP [D. S. Garrett, R. Powers, A. M. Gronenborn, and G. M. Clore J. Magn. Reson. 95, 214-20 (1991).] on a Sun Ultra 10 workstation. […] (FIG. 4A, 4B, 4C), i.e. stronger binding contributes to greater perturbations and weaker binding to less perturbations."}, "MMP-1 [3]": {"molecular_target": "T1, MMP-1", "experiment": "Gel-filtration (Sephedex G25) / ESI mass spectral analysis of binding to MMP-1", "conditions": "1 mM compound, 0.1 mM MMP-1, pH 6.5, room temperature, 30 minutes; unbound compound alone is retained", "protocol": "1 mM each of compounds 1, 2 and 3 (Table 1) were dissolved in DMSO and each incubated alone or in the presence of MMP-1 at a 0.1 mM in a buffer consisting of 20 mM Tris, 100 mM NaCl, 5 mM CaCl2, 0.1 mM ZnCl2, 2 mM NaN3 and 3.5 mM DTT at pH 6.5 at room temperature for 30 minutes. The final concentration of DMSO in the MMP-1:compound mixture was 5%. A total volume of 25 μl of each sample was loaded on a Sephedex G25 column in a Millipore multiscreen filtration system composed of a 0.65 μm hydrophilic durapore filter. The samples were eluted using centrifugation (15,000×g for 3 minutes). Samples were collected and analyzed by mass spectroscopy using automated ESI/MS methods in both positive and negative ionization modes with a Micromass LCT quadrapole time of flight mass spectrometer and Quattro I triple-quadrapole mass spectrometer each equipped with a Gilson 215 liquid handler."}}}
{"compound": "COc1ccc(S(=O)(=O)N(Cc2cccnc2)c2c(C(=O)O)cccc2C(=O)NO)cc1", "note": "[Compound 2, N-Hydroxy-2-[(4-methoxy-benzenesulfonyl)-pyridin-3-ylmethyl-amino]-isophthalamic acid]", "values": [{"measurement": "IC50", "setting": "MMP-1 [1]", "result": 9900, "unit": "nM"}, {"measurement": "Chemical shift perturbations in 2D 1H-15N HSQC spectrum of MMP-1", "setting": "MMP-1 [2]", "result": "induce chemical shift perturbations for residues in the vicinity of the catalytic Zn and S1′ pocket in the MMP-1 active site"}, {"measurement": "Elution of compound through size-exclusion column in presence of MMP-1 (binding detected by ESI/MS)", "setting": "MMP-1 [3]", "result": "compound bound to MMP-1 is eluted"}]}
{"compound": "COc1ccc(S(=O)(=O)N(Cc2ccccc2)c2ccc(C)cc2C(=O)NO)cc1", "note": "[Compound 4, 2-[Benzyl-(4-methoxy-benzenesulfonyl)-amino]-N-hydroxy-5-methyl-benzamide]", "values": [{"measurement": "IC50", "setting": "MMP-1 [1]", "result": 408, "unit": "nM"}]}
{"compound": "COc1ccc(S(=O)(=O)N(Cc2cccnc2)[C@@H](C(=O)NO)C(C)C)cc1", "note": "[Compound 1, N2-(4-Methoxy-benzenesulfonyl)-N2-[(pyridin-3-yl)methyl]-N-hydroxy-D-valinamide]", "values": [{"measurement": "Elution of compound through size-exclusion column in presence of MMP-1 (binding detected by ESI/MS)", "setting": "MMP-1 [3]", "result": "compound bound to MMP-1 is eluted"}]}
{"compound": "COc1ccc(S(=O)(=O)N(CC(=O)O)c2c(C)cccc2C(=O)NO)cc1", "note": "[Compound 3, [(2-Hydroxycarbamoyl-6-methyl-phenyl)-(4-methoxy-benzenesulfonyl)-amino)-acetic acid]", "values": [{"measurement": "IC50", "setting": "MMP-1 [1]", "result": 89000, "unit": "nM"}, {"measurement": "Chemical shift perturbations in 2D 1H-15N HSQC spectrum of MMP-1", "setting": "MMP-1 [2]", "result": "induce chemical shift perturbations for residues in the vicinity of the catalytic Zn and S1′ pocket in the MMP-1 active site"}, {"measurement": "Elution of compound through size-exclusion column in presence of MMP-1 (binding detected by ESI/MS)", "setting": "MMP-1 [3]", "result": "compound bound to MMP-1 is eluted"}]}
{"compound": "COc1ccc(S(=O)(=O)C(CCC(C)C)(Cc2cccnc2)C(=O)NO)cc1", "note": "(centres unmarked) [Compound 7, 2-(4-Methoxy-benzenesulfonyl)-5-methyl-2-pyridin-3-ylmethyl-hexanoic acid hydroxyamide]", "values": [{"measurement": "IC50", "setting": "MMP-1 [1]", "result": 760, "unit": "nM"}]}
{"compound": "Cc1cc(Br)cc(C(=O)NO)c1N(C)S(=O)(=O)c1ccc2ccccc2c1", "note": "[Compound 11, 5-Bromo-N-hydroxy-3-methyl-2-[methyl-(naphthalene-2-sulfonyl)-amino]-benzamide]", "values": [{"measurement": "IC50", "setting": "MMP-1 [1]", "result": 1100, "unit": "nM"}]}
{"compound": "3-[4-(2-Azepan-1-yl-ethoxy)-phenyl]-N-hydroxy-2-(4-methoxy-benzenesulfonyl)-2-propionamide [Compound 13]", "values": [{"measurement": "IC50", "setting": "MMP-1 [1]", "result": 540, "unit": "nM"}]}
